# Experimental data as given in the supplement of paper PMC10307832.
# Legend:
# Experiment in all cases: relative viability (nuclei count vs DMSO), 5 days (fraction); higher = more cells survive
# [1] = compound: CN(C)C[C@@H]1CCn2cc(c3ccccc32)C2=C(C(=O)NC2=O)c2cn(c3ccccc23)CCO1 [Ruboxistaurin] + CC(C)C[C@H](NC(=O)[C@H](Cc1ccccc1)NC(=O)c1cnccn1)B(O)O [Bortezomib] (partner 0.002 µM)
# Method in brief: (§1)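 Values are medians from duplicate plates. Each reflects relative viability, defined as the nuclei count of treated wells over that of vehicle wells. Lung cancer cell lines in 1536-well plates were pin-tool dosed one day after seeding with one drug alone or with a fixed anchor-drug dose plus five library-drug doses (not always all listed) in √10 steps, then fixed, stained and imaged at 4× after 5 days.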
# [2] = compound: CN(C)C[C@@H]1CCn2cc(c3ccccc32)C2=C(C(=O)NC2=O)c2cn(c3ccccc23)CCO1 [Ruboxistaurin] + CC1(C)CCC(c2ccc(Cl)cc2)=C(CN2CCN(c3ccc(C(=O)NS(=O)(=O)c4ccc(N[C@H](CCN5CCOCC5)CSc5ccccc5)c(S(=O)(=O)C(F)(F)F)c4)cc3)CC2)C1 [Navitoclax] (partner 0.5 µM)
# Method in brief: as §1
# [3] = compound: CN(C)C[C@@H]1CCn2cc(c3ccccc32)C2=C(C(=O)NC2=O)c2cn(c3ccccc23)CCO1 [Ruboxistaurin] + COc1cccc2cc(-c3nc([C@H]4CC[C@H](C(=O)O)CC4)n4ncnc(N)c34)[nH]c12 [OSI-027] (partner 0.5 µM)
# Method in brief: as §1
# [4] = compound: CN(C)C[C@@H]1CCn2cc(c3ccccc32)C2=C(C(=O)NC2=O)c2cn(c3ccccc23)CCO1 [Ruboxistaurin] + CS(=O)(=O)CCNCc1ccc(-c2ccc3ncnc(Nc4ccc(OCc5cccc(F)c5)c(Cl)c4)c3c2)o1 [Lapatinib] (partner 2 µM)
# Method in brief: as §1
# [5] = compound: CN(C)C[C@@H]1CCn2cc(c3ccccc32)C2=C(C(=O)NC2=O)c2cn(c3ccccc23)CCO1 [Ruboxistaurin] + CS(=O)(=O)N1CCN(Cc2cc3nc(-c4cccc5[nH]ncc45)nc(N4CCOCC4)c3s2)CC1 [Pictilisib] (partner 1 µM)
# Method in brief: as §1
Cell Line,relative viability ([1]; first compound 0.08 µM),relative viability ([1]; first compound 0.8 µM),relative viability ([1]; first compound 2.53 µM),relative viability ([1]; first compound 8 µM),relative viability ([2]; first compound 0.08 µM),relative viability ([2]; first compound 0.8 µM),relative viability ([2]; first compound 2.53 µM),relative viability ([2]; first compound 8 µM),relative viability ([3]; first compound 0.08 µM),relative viability ([3]; first compound 0.8 µM),relative viability ([3]; first compound 2.53 µM),relative viability ([3]; first compound 8 µM),relative viability ([4]; first compound 0.08 µM),relative viability ([4]; first compound 0.8 µM),relative viability ([4]; first compound 2.53 µM),relative viability ([4]; first compound 8 µM),relative viability ([5]; first compound 0.08 µM),relative viability ([5]; first compound 0.8 µM),relative viability ([5]; first compound 2.53 µM),relative viability ([5]; first compound 8 µM)
HCC-44,0.956,0.868,0.983,0.969,1.05,0.883,1.02,0.971,0.576,0.403,0.481,0.59,0.982,1,1.03,1.1,0.622,0.37,0.596,0.511
NCI-H1915,0.985,0.928,0.985,0.896,0.811,0.752,0.765,0.867,0.645,0.489,0.505,0.363,1.02,0.918,0.891,0.967,0.978,0.839,0.924,0.845
PC-14,1.11,0.743,0.899,1.1,1.03,0.988,1.02,1.08,1.12,0.721,0.811,0.452,0.353,0.311,0.302,0.294,0.788,0.63,0.689,0.402
SK-LU-1,1.37,1.03,1.22,1.07,0.843,0.857,0.949,0.829,0.386,0.322,0.307,0.264,0.937,0.785,0.996,0.969,0.55,0.55,0.561,0.426
NCI-H1437,0.64,0.461,0.526,0.516,1.11,1.05,1.15,1.11,0.985,0.793,0.835,0.804,0.934,0.675,0.751,0.819,0.488,0.388,0.383,0.305
NCI-H1734,1.01,0.781,1.06,0.816,0.964,0.671,0.857,0.745,0.628,0.411,0.56,0.385,1.1,0.984,1.11,0.445,0.471,0.398,0.46,0.352
HCC-15,1.09,1.01,1.14,1.2,0.724,0.64,0.71,0.62,0.701,0.617,0.623,0.582,0.879,0.88,0.879,0.947,0.774,0.689,0.558,0.662
HCC-366,1.05,1.05,1.05,0.986,1.05,0.81,1.16,0.995,0.965,0.675,0.869,0.411,1.12,0.988,1.02,1.01,0.237,0.116,0.151,0.137
NCI-H2347,1.25,1.11,0.957,1.02,0.871,0.707,0.749,0.786,0.483,0.429,0.354,0.356,1.02,0.829,0.934,0.979,0.739,0.772,0.714,0.519
LXF-289,1.03,0.941,0.976,1.06,0.967,0.928,0.931,1.04,0.804,0.74,0.9,0.623,0.914,0.88,0.886,0.864,0.815,0.718,0.736,0.647
BEN,0.903,0.78,0.702,0.677,0.0424,0.0646,0.0707,0.114,0.347,0.31,0.262,0.286,0.803,0.617,0.708,0.564,0.604,0.538,0.535,0.406
NCI-H2023,1.1,0.898,1.06,0.819,0.973,0.837,0.947,0.89,0.438,0.309,0.271,0.158,0.862,0.679,0.913,0.628,0.243,0.179,0.194,0.156
NCI-H1355,1.19,1.21,1.18,1.16,1.09,0.853,0.897,0.813,0.444,0.322,0.382,0.297,1.06,0.916,0.933,0.814,0.473,0.364,0.309,0.276
COR-L 105,0.906,0.651,0.823,0.685,0.741,0.64,0.776,0.807,0.881,0.565,0.62,0.443,0.335,0.385,0.365,0.341,0.463,0.388,0.385,0.313
NCI-H2228,1.33,0.708,1.08,0.941,0.922,0.907,1.15,0.692,0.6,0.439,0.549,0.281,1.51,1.1,1.14,0.911,0.431,0.358,0.345,0.335
NCI-H838,0.876,0.772,1.09,0.618,1.38,1.05,1.3,0.979,0.4,0.33,0.301,0.313,1.07,0.813,0.929,0.875,0.468,0.376,0.371,0.383

Cell Line,relative viability ([1]; first compound 0.08 µM),relative viability ([1]; first compound 0.8 µM),relative viability ([1]; first compound 2.53 µM),relative viability ([1]; first compound 8 µM),relative viability ([2]; first compound 0.08 µM),relative viability ([2]; first compound 0.8 µM),relative viability ([2]; first compound 2.53 µM),relative viability ([2]; first compound 8 µM),relative viability ([3]; first compound 0.08 µM),relative viability ([3]; first compound 0.8 µM),relative viability ([3]; first compound 2.53 µM),relative viability ([3]; first compound 8 µM),relative viability ([4]; first compound 0.08 µM),relative viability ([4]; first compound 0.8 µM),relative viability ([4]; first compound 2.53 µM),relative viability ([4]; first compound 8 µM),relative viability ([5]; first compound 0.08 µM),relative viability ([5]; first compound 0.8 µM),relative viability ([5]; first compound 2.53 µM),relative viability ([5]; first compound 8 µM)
EMC-BAC-2,1.1,0.99,1.04,0.962,1.28,1.08,1.11,1.05,0.399,0.343,0.362,0.258,0.879,0.856,0.866,0.802,0.59,0.47,0.491,0.426
LU99A,1.19,1.06,1.11,0.968,0.883,0.71,0.798,0.716,0.285,0.271,0.266,0.258,1.09,0.967,0.94,0.761,0.338,0.275,0.242,0.21
PC-3 [JPC-3],0.855,0.804,0.793,0.85,0.89,0.757,0.813,0.829,0.922,0.701,0.72,0.622,0.428,0.417,0.44,0.391,0.883,0.678,0.742,0.814
NCI-H596,0.978,0.443,0.932,1,0.962,0.845,0.983,0.69,0.811,0.552,0.799,0.508,1.08,0.965,1.04,0.848,0.472,0.352,0.374,0.346
LCLC-97TM1,0.845,0.487,0.58,0.685,0.672,–,0.332,0.411,0.508,0.547,0.482,0.243,1.1,–,1.6,1.05,0.221,–,0.161,0.127
NCI-H1993,1.3,0.925,1.01,0.83,1.08,0.919,0.994,0.689,0.6,0.479,0.543,0.531,0.837,0.789,0.848,0.808,0.828,0.742,0.763,0.697
HARA,1.22,1.04,1.15,0.465,1.2,1.16,1.14,1.14,0.677,0.356,0.488,0.305,0.803,0.672,0.712,0.57,0.431,0.327,0.325,0.137
NCI-H460,1.1,1.03,0.916,0.824,1.2,1.03,1.16,0.935,0.604,0.557,0.501,0.217,1.03,0.966,1.02,1.01,0.378,0.256,0.371,0.325
NCI-H1650,0.216,0.192,0.212,0.195,1.09,1.2,1.34,1.2,0.711,0.408,0.614,0.376,1.03,0.694,1.09,0.829,0.679,0.402,0.646,0.359
EKVX,1.15,0.998,1.18,0.946,0.981,0.903,1.03,0.882,0.734,0.751,0.709,0.641,0.2,0.19,0.216,0.188,0.53,0.423,0.438,0.354
NCI-H1755,0.976,0.945,0.979,1.02,1.05,0.934,0.963,0.962,0.714,0.621,0.614,0.549,1.05,1,1.01,1.07,0.422,0.362,0.373,0.264
NCI-H1792,0.995,0.928,0.915,1.03,0.701,0.605,0.637,0.68,0.798,0.605,0.736,0.625,0.903,0.892,0.916,0.933,0.258,0.231,0.246,0.233
NCI-H2087,0.794,0.615,0.798,1.04,1.24,0.866,1.17,0.957,0.627,0.492,0.449,0.309,0.952,1.02,1.25,1.1,0.908,0.68,0.837,0.57
H3255,0.854,0.844,0.869,0.732,0.548,0.438,0.519,0.478,0.686,0.501,0.633,0.577,0.221,0.217,0.27,0.221,0.566,0.521,0.498,0.462
NCI-H23,1.2,0.871,1.01,0.929,0.897,0.59,0.91,0.68,0.601,0.448,0.593,0.457,1.38,0.97,1.21,0.819,0.428,0.374,0.392,0.38
